Measured values reported in patent US8519163B2, “Anti-tumor activity of AECHL-1, novel triterpenoid isolated from Ailanthus excelsa in vitro and in vivo” (National Centre for Cell Science, priority 2008, dated 2013).
“And” between values parts separate entries of the source, which are not always exact repeats. Equal entries are not always repeated.

Columns and labels:
[1] = system: B16F10 cells; assay: Cell cycle analysis by flow cytometry; type: cell-based, mouse; conditions: for Phase of cell cycle (% of cells) G1 / Phase of cell cycle (% of cells) G2/M / Phase of cell cycle (% of cells) S / Phase of cell cycle (% of cells) Sub G0: 24 h
Method: (§1) The cell cycle analysis of MCF-7, B16F10 MDA-MB-231 and PC3 cells was done by flow cytometry. […] Cells were harvested with trypsin (0.05%), 0.02% EDTA, 0.05% glucose and a single-cell suspension was prepared. Cells were washed and were pelleted by centrifugation (1000×g for 2 min) and fixed in 70% ethanol while vortexing and stored at 4° C. for 1 hour. Fixed cells were pelleted by centrifugation, to remove ethanol and washed with PBS. Cells were re-suspended in PBS containing 50 μg/ml propidium iodide, 0.1 g/L RNase and 1% BSA, incubated for 30 min at 37° C. in the dark, and analyzed with flow cytometry (FACS Vantage-BD Sciences, USA) equipped with an argon laser at 488 nm. The data was analyzed using Cell Quest software for determining the percent population in different phases of cell cycle.

[2] = system: MCF-7 cells; assay: Cell cycle analysis by flow cytometry; type: cell-based, human; conditions: for Phase of cell cycle (% of cells) G1 / Phase of cell cycle (% of cells) G2/M / Phase of cell cycle (% of cells) S / Phase of cell cycle (% of cells) Sub G0: 24 h
Method: as §1

[3] = system: MDA-MB-231 cells; assay: Cell cycle analysis by flow cytometry; type: cell-based, human; conditions: for Phase of cell cycle (% of cells) G1 / Phase of cell cycle (% of cells) G2/M / Phase of cell cycle (% of cells) S / Phase of cell cycle (% of cells) Sub G0: 24 h
Method: as §1

[4] = system: PC3 cells; assay: Cell cycle analysis by flow cytometry; type: cell-based, human; conditions: for Phase of cell cycle (% of cells) G1 / Phase of cell cycle (% of cells) G2/M / Phase of cell cycle (% of cells) S / Phase of cell cycle (% of cells) Sub G0: 24 h
Method: as §1

[5] = system: HEK 293 (Human embryonic kidney cell line); assay: Cell viability assay (MTT); type: cell-based; conditions: HEK 293, compared with tumor cell lines
Method: The cytotoxic effect of AECHL-1 on the HEK 293, B16F10, PC3, MCF 7 and MDA-MB-231 cells was measured by MTT assay as described in previous studies. The cells were dispensed in 96-well, flat bottom microtiter plates (Becton Dickinson Labware) at a density of 5×10^3 cells each well. […] MTT [3-(4,5-dimethylthiazol-2yl)-2,5-diphenyl tetrazolium bromide] solution (5 mg/ml in PBS) was added at the end of experiment to each well to a final concentration of 0.5 mg/ml, and the cultures were incubated for further 4 h. The resulting formazan crystals were dissolved in 100 μl dimethylsulfoxide (DMSO) and absorbance was measured in a microplate reader at 570 nm (Molecular Devices, Spectra MAX 250). The cytotoxic effect was expressed as a relative percentage of inhibition calculated as follows: Relative inhibition(%)=[(A570 control−A570 AECHL-1)A570 control]×100 Cell Proliferation Assay

[6] = system: MCF-7; assay: In vivo xenograft tumor model; set-up: species or system athymic nude mice; conditions: for tumor size reduced by: MCF-7 xenograft
Method: The data reported for tumor volumes are expressed as mean±SEM. Statistical differences were determined by ANOVA and post test applied was Tukey-Kramer multiple comparison Test. For Tumor to body weight ratio post test applied was Dunnett multiple comparisons test.

[7] = system: c-Myc; assay: Western blot of tumor homogenates of C57B1/6 mice; type: in vivo, mouse; conditions: tumor of C57 mice
Method: Prior to immunoblot analysis, tumor segments stored at −80° C. were thawed, washed, minced and homogenized in lysis buffer (120 mM NaCl, 1.0% Triton X 100, 20 mM Tris-HCl, pH 7.5, 10% glycerol, 2 mM EDTA, Protease inhibitor cocktail, Roche) using a Polytron homogenization device. Lysates were incubated at 4° C. for 30 min and centrifuged at 14000 r.p.m. in an Eppendorf micro centrifuge for 15 min. Proteins were isolated in solublised form. Protein concentrations were measured by Bradford assay (Bio-Rad protein assay kit) and stored at −80° C. For immunobloting, 60 μg of total protein from the tumor lysates were used Proteins were resolved in a 10% SDS-polyacrylamide gel, transferred to the immobilon-P […] membrane and blocked with 5% (wt/v) non fat dry milk powder (Sigma) in TBST buffer (10 mM Tris pH 7.6, 150 mM NaCl and 0.1% Tween-20) for three hours at room temperature and then incubated with primary antibodies p53, pp53, p21, Cyclin D1, CDK4 and c-Myc in TBST for 3 h and with actin for 1 hour at room temperature. The membrane was incubated further with the secondary antibody HRP-conjugated (BD Bioscience) at 1:10000 dilution for 1 h at room temperature. Following each antibody incubation, the membrane was washed thoroughly with TBST buffer 3 times. The protein bands were visualized using the enhanced chemiluminescence substrate reaction (Pierce) according to the manufacturer's instructions using X-OMAT AR5 film (Kodak)

C=C1C(OCC)C2(O)OCC34C(=C(C)c5c(C)cc(O)c(OCC)c5C23)OC(=O)C(OC(=O)C(C)(O)CC)C14 (centres unmarked) [AECHL-1]
Phase of cell cycle (% of cells) G1 ([1]; B16F10, 10 μM): 56.55%
Phase of cell cycle (% of cells) G2/M ([1]; B16F10, 10 μM): 23.02%
Phase of cell cycle (% of cells) S ([1]; B16F10, 10 μM): 20.46%
Phase of cell cycle (% of cells) Sub G0 ([1]; B16F10, 10 μM): 0.39%
Phase of cell cycle (% of cells) G1 ([1]; B16F10, 20 μM): 57.67%
Phase of cell cycle (% of cells) G2/M ([1]; B16F10, 20 μM): 23.60%
Phase of cell cycle (% of cells) S ([1]; B16F10, 20 μM): 18.40%
Phase of cell cycle (% of cells) Sub G0 ([1]; B16F10, 20 μM): 0.65%
Phase of cell cycle (% of cells) G1 ([1]; B16F10, 40 μM): 72.08%
Phase of cell cycle (% of cells) G2/M ([1]; B16F10, 40 μM): 14.73%
Phase of cell cycle (% of cells) S ([1]; B16F10, 40 μM): 11.43%
Phase of cell cycle (% of cells) Sub G0 ([1]; B16F10, 40 μM): 2.05%
Phase of cell cycle (% of cells) G1 ([1]; B16F10, 100 μM): 64.04%
Phase of cell cycle (% of cells) G2/M ([1]; B16F10, 100 μM): 13.23%
Phase of cell cycle (% of cells) S ([1]; B16F10, 100 μM): 15.41%
Phase of cell cycle (% of cells) Sub G0 ([1]; B16F10, 100 μM): 7.82%
phase of cell growth arrest ([1]; B16F10 cells): G0/G1 phase arrest
Phase of cell cycle (% of cells) G1 ([2]; MCF-7, 4 μM): 35.04%
Phase of cell cycle (% of cells) G2/M ([2]; MCF-7, 4 μM): 36.65%
Phase of cell cycle (% of cells) S ([2]; MCF-7, 4 μM): 27.20%
Phase of cell cycle (% of cells) Sub G0 ([2]; MCF-7, 4 μM): 1.61%
Phase of cell cycle (% of cells) G1 ([2]; MCF-7, 10 μM): 27.85%
Phase of cell cycle (% of cells) G2/M ([2]; MCF-7, 10 μM): 36.78%
Phase of cell cycle (% of cells) S ([2]; MCF-7, 10 μM): 34.19%
Phase of cell cycle (% of cells) Sub G0 ([2]; MCF-7, 10 μM): 1.99%
Phase of cell cycle (% of cells) G1 ([2]; MCF-7, 20 μM): 29.68%
Phase of cell cycle (% of cells) G2/M ([2]; MCF-7, 20 μM): 31.98%
Phase of cell cycle (% of cells) S ([2]; MCF-7, 20 μM): 37.44%
Phase of cell cycle (% of cells) Sub G0 ([2]; MCF-7, 20 μM): 1.81%
Phase of cell cycle (% of cells) G1 ([2]; MCF-7, 40 μM): 36.26%
Phase of cell cycle (% of cells) G2/M ([2]; MCF-7, 40 μM): 29.42%
Phase of cell cycle (% of cells) S ([2]; MCF-7, 40 μM): 32.50%
Phase of cell cycle (% of cells) Sub G0 ([2]; MCF-7, 40 μM): 2.55%
% of cells in G0/G1 phase ([2]; MCF-7, 100 μM): 36.26%
cell count in S-G2/M phase ([2]; MCF-7, 100 μM, control 45.13): 69.4%
phase of cell growth arrest ([2]; MCF-7 cells): S-G2/M phase
Phase of cell cycle (% of cells) G1 ([3]; MDA-231, 10 μM): 43.03%
Phase of cell cycle (% of cells) G2/M ([3]; MDA-231, 10 μM): 32.21%
Phase of cell cycle (% of cells) S ([3]; MDA-231, 10 μM): 24.06%
Phase of cell cycle (% of cells) Sub G0 ([3]; MDA-231, 10 μM): 1.03%
Phase of cell cycle (% of cells) G1 ([3]; MDA-231, 20 μM): 33.18%
Phase of cell cycle (% of cells) G2/M ([3]; MDA-231, 20 μM): 38.01%
Phase of cell cycle (% of cells) S ([3]; MDA-231, 20 μM): 28.63%
Phase of cell cycle (% of cells) Sub G0 ([3]; MDA-231, 20 μM): 0.95%
Phase of cell cycle (% of cells) G1 ([3]; MDA-231, 40 μM): 26.66%
Phase of cell cycle (% of cells) G2/M ([3]; MDA-231, 40 μM): 45.14% and 45.15%
Phase of cell cycle (% of cells) S ([3]; MDA-231, 40 μM): 28.12%
Phase of cell cycle (% of cells) Sub G0 ([3]; MDA-231, 40 μM): 0.54%
Phase of cell cycle (% of cells) G1 ([3]; MDA-231, 100 μM): 22.82%
Phase of cell cycle (% of cells) G2/M ([3]; MDA-231, 100 μM): 46.17%
Phase of cell cycle (% of cells) S ([3]; MDA-231, 100 μM): 30.99%
Phase of cell cycle (% of cells) Sub G0 ([3]; MDA-231, 100 μM): 0.58%
phase of cell growth arrest ([3]; MDA-MB 231 cells): S-G2/M phase
Phase of cell cycle (% of cells) G1 ([4]; PC3, 10 μM): 50.74%
Phase of cell cycle (% of cells) G2/M ([4]; PC3, 10 μM): 30.94%
Phase of cell cycle (% of cells) S ([4]; PC3, 10 μM): 16.21%
Phase of cell cycle (% of cells) Sub G0 ([4]; PC3, 10 μM): 1.66%
Phase of cell cycle (% of cells) G1 ([4]; PC3, 20 μM): 48.96%
Phase of cell cycle (% of cells) G2/M ([4]; PC3, 20 μM): 34.99%
Phase of cell cycle (% of cells) S ([4]; PC3, 20 μM): 13.99%
Phase of cell cycle (% of cells) Sub G0 ([4]; PC3, 20 μM): 1.79%
Phase of cell cycle (% of cells) G1 ([4]; PC3, 40 μM): 44.26%
Phase of cell cycle (% of cells) G2/M ([4]; PC3, 40 μM): 33.82%
Phase of cell cycle (% of cells) S ([4]; PC3, 40 μM): 17.71%
Phase of cell cycle (% of cells) Sub G0 ([4]; PC3, 40 μM): 4.14%
Phase of cell cycle (% of cells) G1 ([4]; PC3, 100 μM): 42.92%
Phase of cell cycle (% of cells) G2/M ([4]; PC3, 100 μM): 35.37%
Phase of cell cycle (% of cells) S ([4]; PC3, 100 μM): 18.25%
Phase of cell cycle (% of cells) Sub G0 ([4]; PC3, 100 μM): 3.36%
cell count in S-G2/M phase ([4]; PC3, 100 μM, vehicle 45.41%): 53.62%
phase of cell growth arrest ([4]; PC3 cells): S-G2/M phase
cytotoxicity in normal cells [5]: less cytotoxicity
tumor size reduced by ([6]; 5 μg/0.05 ml intra-tumor for 10 days): 35.72±0.05%
tumor size reduced by ([6]; 10 μg/0.05 ml intra-tumor for 10 days): 28.55±0.06%
tumor size reduced by ([6]; 20 μg/0.05 ml intra-tumor for 10 days): 4.1±0.27%
histological examination of tumor tissue ([6]; nude mice, 5 μg): decreased tumor cell density
expression of c-Myc [7]: downragulation
